# Data published in patent US20250009725A1, “PHARMACEUTICAL COMPOSITION HAVING EXCELLENT DISSOLUTION PROPERTIES” (DAIICHI SANKYO COMPANY, LIMITED, priority 2021, published 2025).
# Where a name gives a salt, the structure may show the parent alone.
# Experiment: Solubility and dissolution of valemetostat tosylate under vigorous or slow agitation
# Assay type: physicochemical
# From the text: The object of the present invention is to provide a pharmaceutical composition in which valemetostat or a pharmaceutically acceptable salt thereof, particularly valemetostat tosylate, has excellent dissolution properties. […] Since the effect of vigorous agitation cannot be expected in vivo, a pharmaceutical composition having sufficient dissolution properties in vivo is needed.
smiles,measurement,value
"Cc1cc(C)c(CNC(=O)c2cc(Cl)c3c(c2C)O[C@@](C)([C@H]2CC[C@H](N(C)C)CC2)O3)c(=O)[nH]1 [valemetostat tosylate, (2R)-7-chloro-2-[trans-4-(dimethylamino)cyclohexyl]-N-[(4,6-dimethyl-2-oxo-1,2-dihydropyridin-3-yl)methyl]-2,4-dimethyl-1,3-benzodioxol-5-carboxamide p-toluenesulfonate]",solubility (in words),sufficient solubility
